Source: patent US9243038B2, “Macrocyclic insulin-degrading enzyme (IDE) inhibitors and uses thereof” (President and Fellows of Harvard College, priority 2011, dated 2016)
Like-named read-outs stand apart in the source and are kept apart here.

Assays:
IDE [1] = target: T1, IDE (Homo sapiens (Human), UniProt P14735); test: In vitro protease assay with IDE (cleavage of fluorophore-quencher substrate peptide); format: biochemical; conditions: for potency of trans-olefin isomer relative to corresponding cis-olefin isomer: trans vs cis isomer, IDE inhibition; for activity / potency against IDE (in words): derivatives compared with 6b
Description: Protease assays with IDE and neprilysin were performed using Mca-RPPGFSAFK(Dnp)-OH substrate peptide (R&D Systems, SEQ ID NO: 6) and purified recombinant human IDE and recombinant human neprilysin (R&D Systems) according to the manufacturer's instructions. For IDE, 2 μL of small molecule dissolved in DMSO was combined with 48 μL 0.2 μg/mL IDE in IDE assay buffer (50 mM Tris, 1 M NaCl, pH 7.5). 50 μL of 20 μM substrate peptide in IDE assay buffer was then added to initiate the reaction, and peptide cleavage was monitored on a fluorescent plate reader (excitation=320 nm; emission=405 nm) for 5 minutes. The above protocol was also used for assaying neprilysin activity, substituting the neprilysin assay buffer (50 mM Tris, 0.05% Brij-35, pH 9.0).
Compounds were synthesized as described previously;^9 in most cases the macrocycle synthesis yielded two isomers corresponding to the cis and trans olefins generated after macrocyclization. Macrocycles were assayed for IDE inhibition by monitoring cleavage of a substrate peptide^13 containing a fluorophore-quencher pair such that cleavage of the model substrate results in increased fluorescence.

IDE [2] = target: T1, IDE; test: In vitro selection of DNA-templated macrocycle library against immobilized IDE; format: binding
Description: Selections of the DNA-templated library were performed as described previously.^9 20 μg of IDE was immobilized on 30 μL of Dynabeads His-Tag Isolation and Pulldown (Invitrogen) magnetic particles according to the manufacturer's instructions. Elution of captured DNA-library members was performed by incubating the protein-loaded particles with 200 mM imidazole. Prior to PCR amplification, imidazole was removed from the eluted samples by gel filtration using Princeton Separations Sephadex minicolumns.
Insulin-degrading enzyme (IDE) protein was obtained in its purified form with a poly-histidine tag and immobilized on magnetic particles coated with cobalt. After incubation with the DNA-templated library, non-binding library members were washed away with buffer, and protein-library member complexes were eluted from resin with imidazole (FIG. 1). DNA-templated library members enriched after target selection were PCR amplified with target-specific barcoded primers that appended adaptors required for Illumina high-throughput DNA sequencing. We performed two independent selection replicates with IDE and three independent selections against empty resin as negative control selections. These five barcoded selection PCR amplicons were pooled in equimolar quantities and submitted for Illumina high-throughput DNA sequencing. High-throughput sequencing yielded 19 million sequence reads—an average of ˜3.8 million sequence reads per selection.
After one round of in vitro selection, we identified DNA sequences corresponding to macrocycles A12-B8-C11-D5 (3), A12-B8-C5-D5 (5), A12-B8-C6-D5 (6) and A12-B8-C8-D5 (2) enriched between 4- to 14-fold against IDE (FIG. 2a, IDE selection 1); these same macrocycles were also enriched 3- to 6-fold in a replicate IDE selection (FIG. 2a, IDE selection 2).

[3] = Preliminary pharmacokinetics after i.p. injection (LC-MS quantitation in plasma); conditions: mice, 20 mg/kg i.p.
recombinant human THOP1 = recombinant human THOP1 (Homo sapiens (Human), UniProt P52888); test: In vitro protease assay with THOP1; format: biochemical
Description: (§1) Protease assays with THOP1 and NLN were performed using MCA-Pro-Leu-Gly-Pro-D-Lys(DNP)-OH (Bachem, SEQ ID NO: 7) and purified recombinant human THOP1 and NLN (R&D Systems) according to the manufacturer's instructions.

[4] = target: recombinant human neprilysin (Homo sapiens (Human), UniProt P08473); test: In vitro protease assay with neprilysin; conditions: even when assayed at 100 μM
recombinant human NLN = recombinant human NLN (Homo sapiens (Human), UniProt Q9BYT8); test: In vitro protease assay with NLN; format: biochemical
Description: as §1

[5] = Biodistribution assay (LC-MS of brain, pancreas, plasma after IP injection); format: in vivo, mouse; conditions: mice, 45 minutes after intraperitoneal injection
Description: Macrocycles were diluted to 0.1 mg/mL or 1 mg/mL in PBS and IP-injected into a mouse to produce a concentration of 1 mg/kg or 10 mg/kg, respectively. After 45 minutes, organs were harvested, and the small-molecule fractions were extracted into a 2:1:1 mixture of chloroform:methanol:water. Samples were evaporated under a stream of nitrogen, resuspended in 100 μL of chloroform and subjected to LC-MS analysis.
The tissue distribution of enriched macrocycles after i.p. injection was examined. […] Briefly, compounds were injected at different concentrations intraperitoneally into mice, and plasma, brain, and pancreas were harvested after 45 minutes. Vehicle-only injections were performed as negative controls. We determined the relative amount of macrocycle present by extracting the organs with organic solvents and quantifying the amount of compound present by LC-MS analysis.

trypsin = test: Trypsin activity assay (Z-Arg-AMC substrate); conditions: even when assayed at 100 μM
plasma IDE activity = plasma IDE activity (Mus musculus (Mouse), UniProt Q9JHR7); test: Plasma IDE activity in mice injected with inhibitor; format: in vivo; conditions: 60 min after 10 mg/kg, 20 mg/kg, or 40 mg/kg i.p. injection, vs vehicle
Description: Finally, we compared plasma IDE activity in mice injected with 6b with plasma IDE activity in control mice injected with vehicle alone (18:1:1, saline:DMSO:Tween-80). Plasma IDE activity 60 min after 10 mg/kg, 20 mg/kg, or 40 mg/kg i.p. injection of 6b was inhibited by ≧90% (FIG. 9).

IDE [6] = target: T1, IDE; test: Yonetani-Theorell double inhibition of IDE; format: biochemical; conditions: varying concentrations of both 6b and Ii1
From the text: The lack of obvious structural relationship between 6b and known IDE substrates, together with its excellent selectivity profile, raised the possibility that 6b may inhibit IDE by binding an allosteric site, rather than the active site. To test this possibility, we assayed IDE in vitro in the presence of varying concentrations of both 6b and Ii1.

Solubility = format: physicochemical
[7] = fluorophore-quencher model peptide

Chain of recombinant human THOP1 (P52888 whole entry): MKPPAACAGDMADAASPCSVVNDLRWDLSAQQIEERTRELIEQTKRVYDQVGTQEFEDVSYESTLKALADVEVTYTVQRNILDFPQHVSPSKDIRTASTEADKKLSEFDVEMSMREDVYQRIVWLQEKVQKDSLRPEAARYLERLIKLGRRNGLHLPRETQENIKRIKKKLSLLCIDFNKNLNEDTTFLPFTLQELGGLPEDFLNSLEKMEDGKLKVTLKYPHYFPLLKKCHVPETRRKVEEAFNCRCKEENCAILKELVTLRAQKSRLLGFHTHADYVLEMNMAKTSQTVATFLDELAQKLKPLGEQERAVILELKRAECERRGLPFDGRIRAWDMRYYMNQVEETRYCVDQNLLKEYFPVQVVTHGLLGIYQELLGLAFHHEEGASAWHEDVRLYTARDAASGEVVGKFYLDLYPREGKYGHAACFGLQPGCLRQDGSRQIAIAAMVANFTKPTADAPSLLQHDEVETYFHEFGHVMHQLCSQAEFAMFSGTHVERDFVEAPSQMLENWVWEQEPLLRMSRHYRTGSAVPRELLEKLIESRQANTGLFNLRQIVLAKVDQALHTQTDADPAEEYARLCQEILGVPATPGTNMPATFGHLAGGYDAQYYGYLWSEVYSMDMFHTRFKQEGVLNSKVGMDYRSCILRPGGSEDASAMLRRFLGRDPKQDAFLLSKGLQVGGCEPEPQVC
Chain of recombinant human NLN (Q9BYT8 38-704): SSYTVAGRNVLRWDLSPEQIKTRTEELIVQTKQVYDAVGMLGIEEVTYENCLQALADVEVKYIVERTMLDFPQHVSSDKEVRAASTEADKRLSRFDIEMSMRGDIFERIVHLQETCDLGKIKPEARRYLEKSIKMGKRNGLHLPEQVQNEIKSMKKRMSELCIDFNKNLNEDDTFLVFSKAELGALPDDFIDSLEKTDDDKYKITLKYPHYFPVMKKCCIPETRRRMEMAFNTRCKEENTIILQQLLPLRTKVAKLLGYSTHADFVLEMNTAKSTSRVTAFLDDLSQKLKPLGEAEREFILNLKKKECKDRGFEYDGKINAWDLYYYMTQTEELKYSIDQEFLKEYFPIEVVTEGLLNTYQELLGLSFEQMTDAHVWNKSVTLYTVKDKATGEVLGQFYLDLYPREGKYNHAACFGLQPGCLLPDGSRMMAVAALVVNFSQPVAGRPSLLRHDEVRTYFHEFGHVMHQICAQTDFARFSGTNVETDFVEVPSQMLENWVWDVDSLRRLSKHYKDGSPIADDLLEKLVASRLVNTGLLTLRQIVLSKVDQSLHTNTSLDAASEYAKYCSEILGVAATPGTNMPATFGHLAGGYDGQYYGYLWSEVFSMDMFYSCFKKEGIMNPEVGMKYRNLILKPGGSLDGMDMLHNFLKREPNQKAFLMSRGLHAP
T1 sequence (P14735 whole entry): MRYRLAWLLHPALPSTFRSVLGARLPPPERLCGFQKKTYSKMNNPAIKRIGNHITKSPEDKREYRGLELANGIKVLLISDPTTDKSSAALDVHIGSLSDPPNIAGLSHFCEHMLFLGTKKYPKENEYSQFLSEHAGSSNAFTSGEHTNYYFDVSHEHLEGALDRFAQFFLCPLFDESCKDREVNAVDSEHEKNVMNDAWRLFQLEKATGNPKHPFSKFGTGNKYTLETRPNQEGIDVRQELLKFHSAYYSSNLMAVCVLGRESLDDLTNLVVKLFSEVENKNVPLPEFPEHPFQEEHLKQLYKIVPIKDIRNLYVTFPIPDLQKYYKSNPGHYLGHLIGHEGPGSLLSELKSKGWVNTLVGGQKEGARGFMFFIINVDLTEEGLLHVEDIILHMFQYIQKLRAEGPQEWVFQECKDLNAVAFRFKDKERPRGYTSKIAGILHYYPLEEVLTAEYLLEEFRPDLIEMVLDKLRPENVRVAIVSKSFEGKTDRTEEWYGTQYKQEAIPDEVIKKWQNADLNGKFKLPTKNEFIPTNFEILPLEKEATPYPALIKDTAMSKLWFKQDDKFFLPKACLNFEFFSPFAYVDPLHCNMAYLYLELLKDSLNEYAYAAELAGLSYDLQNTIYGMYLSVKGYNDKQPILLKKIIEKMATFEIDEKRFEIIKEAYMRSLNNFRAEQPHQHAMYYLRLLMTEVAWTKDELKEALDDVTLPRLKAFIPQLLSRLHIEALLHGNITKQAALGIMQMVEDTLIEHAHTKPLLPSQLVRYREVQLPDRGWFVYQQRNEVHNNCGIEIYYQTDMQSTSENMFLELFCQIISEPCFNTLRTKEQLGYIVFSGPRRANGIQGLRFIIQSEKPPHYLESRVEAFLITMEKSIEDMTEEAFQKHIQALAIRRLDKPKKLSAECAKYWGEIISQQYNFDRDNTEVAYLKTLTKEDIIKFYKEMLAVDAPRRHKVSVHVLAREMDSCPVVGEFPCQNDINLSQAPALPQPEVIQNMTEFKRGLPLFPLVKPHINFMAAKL
Chain of plasma IDE activity (Q9JHR7 other isoform, or with tags, fused parts or gaps): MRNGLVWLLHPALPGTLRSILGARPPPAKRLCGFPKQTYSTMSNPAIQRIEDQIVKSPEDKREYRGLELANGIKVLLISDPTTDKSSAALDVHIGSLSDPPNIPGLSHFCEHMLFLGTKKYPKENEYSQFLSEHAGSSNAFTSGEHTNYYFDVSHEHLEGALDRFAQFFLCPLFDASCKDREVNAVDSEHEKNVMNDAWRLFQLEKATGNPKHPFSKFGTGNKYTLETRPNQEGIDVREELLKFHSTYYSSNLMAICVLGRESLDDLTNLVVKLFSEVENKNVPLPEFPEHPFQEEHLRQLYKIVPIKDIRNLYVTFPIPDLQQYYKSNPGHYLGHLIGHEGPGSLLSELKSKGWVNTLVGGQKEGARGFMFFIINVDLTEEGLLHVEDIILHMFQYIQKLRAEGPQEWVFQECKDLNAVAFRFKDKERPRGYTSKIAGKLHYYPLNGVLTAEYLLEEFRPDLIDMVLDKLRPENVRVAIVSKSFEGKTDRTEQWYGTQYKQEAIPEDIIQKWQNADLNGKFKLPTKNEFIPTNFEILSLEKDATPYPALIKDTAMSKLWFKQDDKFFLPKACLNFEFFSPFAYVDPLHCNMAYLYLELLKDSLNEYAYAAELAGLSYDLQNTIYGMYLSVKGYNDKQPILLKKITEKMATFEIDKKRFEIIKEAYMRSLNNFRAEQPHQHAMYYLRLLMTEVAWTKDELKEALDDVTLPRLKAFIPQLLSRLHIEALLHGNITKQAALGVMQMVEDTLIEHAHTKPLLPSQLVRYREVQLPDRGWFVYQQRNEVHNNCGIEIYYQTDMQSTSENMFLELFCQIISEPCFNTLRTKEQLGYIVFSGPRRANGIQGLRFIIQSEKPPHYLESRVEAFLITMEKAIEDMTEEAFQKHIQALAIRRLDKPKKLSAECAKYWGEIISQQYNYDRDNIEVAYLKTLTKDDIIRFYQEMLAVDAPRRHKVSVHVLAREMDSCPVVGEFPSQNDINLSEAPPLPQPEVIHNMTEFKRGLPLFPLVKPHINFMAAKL
Chain of recombinant human neprilysin (P08473 whole entry): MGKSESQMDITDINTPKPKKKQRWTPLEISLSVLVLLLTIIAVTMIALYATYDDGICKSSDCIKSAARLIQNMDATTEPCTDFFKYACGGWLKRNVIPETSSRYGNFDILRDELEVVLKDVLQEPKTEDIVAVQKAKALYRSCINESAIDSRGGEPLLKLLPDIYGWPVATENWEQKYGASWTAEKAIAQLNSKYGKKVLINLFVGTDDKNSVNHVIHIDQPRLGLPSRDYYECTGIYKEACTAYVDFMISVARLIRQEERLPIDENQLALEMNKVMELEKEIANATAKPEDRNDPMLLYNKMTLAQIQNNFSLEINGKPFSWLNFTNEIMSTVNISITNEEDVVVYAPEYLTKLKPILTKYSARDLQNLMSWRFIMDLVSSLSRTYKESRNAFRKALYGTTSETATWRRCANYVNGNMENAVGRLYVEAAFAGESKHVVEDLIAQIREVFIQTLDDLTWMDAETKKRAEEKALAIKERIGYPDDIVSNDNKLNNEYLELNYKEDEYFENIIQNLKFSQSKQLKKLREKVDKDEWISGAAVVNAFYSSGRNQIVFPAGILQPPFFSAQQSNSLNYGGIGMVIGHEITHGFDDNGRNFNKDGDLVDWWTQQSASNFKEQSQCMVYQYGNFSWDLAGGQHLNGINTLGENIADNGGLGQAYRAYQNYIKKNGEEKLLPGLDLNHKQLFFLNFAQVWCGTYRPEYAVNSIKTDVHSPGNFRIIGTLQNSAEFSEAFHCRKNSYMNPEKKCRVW

For `NC(=O)C1CCCCNC(=O)C(Cc2ccc(C(=O)c3ccccc3)cc2)NC(=O)C(CC2CCCCC2)NC(=O)CC(O)C(CC2CCCCC2)NC(=O)C=CC(=O)N1` (mixture of isomers) [Compound 3], the “potency of trans-olefin isomer relative to corresponding cis-olefin isomer” value (IDE [1]) was over 10 fold, the “enrichment against IDE” value (IDE [2]; IDE selection 1, one round) was 4- to 14 fold and the “enrichment against IDE” value (IDE [2]; replicate IDE selection 2) was 3- to 6 fold.
In the case of `NC(=O)C1CCCCNC(=O)CNC(=O)C(CC2CCCCC2)NC(=O)CC(O)C(CC2CCCCC2)NC(=O)C=CC(=O)N1` (mixture of isomers) [Compound 4], the “activity / potency against IDE (in words)” value (shortened to “activity / potency”) (IDE [1]) is reported as “inactive” and the “enrichment against IDE (in words)” value (IDE [2]) is reported as “less strongly enriched”.
For `NC(=O)C1CCCCNC(=O)C(Cc2ccc(C(=O)c3ccccc3)cc2)NC(=O)C(CC2CCCCC2)NC(=O)C(CC2CC2)NC(=O)C=CC(=O)N1` (mixture of isomers) [Compound 5], the “potency of trans-olefin isomer relative to corresponding cis-olefin isomer” value (IDE [1]) was over 10 fold, the “enrichment against IDE” value (IDE [2]; IDE selection 1, one round) was 4- to 14 fold and the “enrichment against IDE” value (IDE [2]; replicate IDE selection 2) was 3- to 6 fold.
In the case of `NC(=O)CCC1NC(=O)C=CC(=O)NC(C(N)=O)CCCCNC(=O)C(Cc2ccc(C(=O)c3ccccc3)cc2)NC(=O)C(CC2CCCCC2)NC1=O` (mixture of isomers) [Compound 6], the “potency of trans-olefin isomer relative to corresponding cis-olefin isomer” value (IDE [1]) is reported as over 10 fold, the “enrichment against IDE” value (IDE [2]; IDE selection 1, one round) is reported as 4- to 14 fold and the “enrichment against IDE” value (IDE [2]; replicate IDE selection 2) is reported as 3- to 6 fold.
For `NC(=O)CCC1NC(=O)C=CC(=O)NC(C(N)=O)CCCCNC(=O)CNC(=O)C(CC2CCCCC2)NC1=O` (centres unmarked) [Compound 1], the “activity / potency” value (IDE [1]) was “inactive”, the IC50 (IDE [1]; [7]) was over 100 µM and the “enrichment against IDE (in words)” value (IDE [2]) was “less strongly enriched”.
In the case of `N=C(N)NCCCC1NC(=O)C=CC(=O)NC(C(N)=O)CCCCNC(=O)C(Cc2ccc(C(=O)c3ccccc3)cc2)NC(=O)C(CC2CCCCC2)NC1=O` (centres unmarked) [Compound 2], the IC50 (IDE [1]; [7]) is reported as 10 µM, the “enrichment against IDE” value (IDE [2]; IDE selection 1, one round) is reported as 4- to 14 fold and the “enrichment against IDE” value (IDE [2]; replicate IDE selection 2) is reported as 3- to 6 fold.
Compound `NC(=O)C1CCCCNC(=O)C(Cc2ccc(C(=O)c3ccccc3)cc2)NC(=O)C(CC2CCCCC2)NC(=O)CC(O)C(CC2CCCCC2)NC(=O)C=CC(=O)N1` (centres unmarked) [Compound 3a] has an IC50 (IDE [1]; [7]) of over 20 µM.
In the case of `NC(=O)C1CCCCNC(=O)C(Cc2ccc(C(=O)c3ccccc3)cc2)NC(=O)C(CC2CCCCC2)NC(=O)CC(O)C(CC2CCCCC2)NC(=O)C=CC(=O)N1` (centres unmarked) [Compound 3b], the IC50 (IDE [1]; [7]) is reported as 1.5 µM.
For `NC(=O)C1CCCCNC(=O)CNC(=O)C(CC2CCCCC2)NC(=O)CC(O)C(CC2CCCCC2)NC(=O)C=CC(=O)N1` (centres unmarked) [Compound 4a], the IC50 (IDE [1]; [7]) was over 100 µM.
With `NC(=O)C1CCCCNC(=O)C(Cc2ccc(C(=O)c3ccccc3)cc2)NC(=O)C(CC2CCCCC2)NC(=O)C(CC2CC2)NC(=O)C=CC(=O)N1` (centres unmarked) [Compound 5a] the IC50 (IDE [1]; [7]) was over 20 µM.
In the case of `NC(=O)C1CCCCNC(=O)C(Cc2ccc(C(=O)c3ccccc3)cc2)NC(=O)C(CC2CCCCC2)NC(=O)C(CC2CC2)NC(=O)C=CC(=O)N1` (centres unmarked) [Compound 5b], the IC50 (IDE [1]; [7]) is reported as 1 µM.
For `NC(=O)CCC1NC(=O)C=CC(=O)NC(C(N)=O)CCCCNC(=O)C(Cc2ccc(C(=O)c3ccccc3)cc2)NC(=O)C(CC2CCCCC2)NC1=O` (centres unmarked) [Compound 6a], the IC50 (IDE [1]; [7]) was 5.6 µM.
In the case of `NC(=O)CCC1NC(=O)C=CC(=O)NC(C(N)=O)CCCCNC(=O)C(Cc2ccc(C(=O)c3ccccc3)cc2)NC(=O)C(CC2CCCCC2)NC1=O` (centres unmarked) [Compound 6b], the “time of peak blood concentration” value [3] is reported as 60 min, the tolerability of injections [3] is reported as “well tolerated” and the peak blood concentration ([3]; 18:1:1 saline:DMSO:Tween-80) is reported as 0.2 µM. For the same compound, the IC50 (IDE [1]) was 0.14 µM, the IC50 (IDE [1]; [7]) was 0.06 µM and the “activation of THOP1” value (recombinant human THOP1; at higher concentrations) was “Slight activation”. The “inhibition of thimet oligopeptidase (THOP1)” value (recombinant human THOP1; even when assayed at 100 μM) was “failed to demonstrate any significant inhibition”, the “inhibition of neprilysin (NEP)” value [4] was “failed to demonstrate any significant inhibition” and the “activation of NLN” value (recombinant human NLN; at higher concentrations) was “Slight activation”. The “inhibition of neurolysin (NLN)” value (recombinant human NLN; even when assayed at 100 μM) was “failed to demonstrate any significant inhibition”, the detection in brain [5] was “none of the three compounds could be detected” and the detection in pancreas [5] was “could be detected”. The detection in plasma [5] was “could be detected”, the “macrocycle concentration in plasma (comparison)” value [5] was “comparable” and the inhibition of trypsin (trypsin) was “failed to demonstrate any significant inhibition”. For the same compound, the “inhibition of plasma IDE activity” value (plasma IDE activity) was at least 90% and the “binding site relative to Ii1 (double inhibition plot)” value (IDE [6]) was “binding sites of Ii1 and 6b are distinct”.
For `NCCCC[C@@H]1NC(=O)/C=C/C(=O)NC(C(N)=O)CCCCNC(=O)[C@@H](Cc2ccc(C(=O)c3ccccc3)cc2)NC(=O)[C@H](CC2CCCCC2)NC1=O` (some centres unmarked) [Compound 20], the “activity / potency” value (IDE [1]) was “equipotent” and the “solubility in water or saline” value (Solubility) was under 100 mM.
With `N=C(N)NCCC[C@H](NC(=O)[C@@H](CC(=O)NO)Cc1ccc2ccccc2c1)C(=O)N[C@@H](Cc1c[nH]c2ccccc12)C(=O)N[C@@H](CCC(=O)O)C(N)=O` [Ii1, reference compound] the IC50 (recombinant human THOP1) was 0.006 µM and the IC50 (recombinant human NLN) was 0.15 µM.
